Laboratory results from patent US12459974B2, “Bicyclic peptide ligands specific for Nectin-4” (priority 2018, dated 2025).
*1 amine or outer side, *2 acyl side, *3 side chain or, on linkers, in order; H or OH if unused. Where a SMILES comes first, the peptide text is derived from it. Bridges are numbered along the chain shown (N, C = ends). Roman numbers before positions name the chains, in order. [ ]: non-standard residue; d: D form. The star is where a group is joined. ξ: configuration not given here. TATA = O=C(CC[*:1])N1CN(C(=O)CC[*:2])CN(C(=O)CC[*:3])C1; Dolaproine = CO[C@@H]([C@@H]1CCCN1)[C@@H](C)C(=O)O; X1 = CC[C@H](C)C(C(CC(=O)[*:2])OC)N(C)[*:1]; 1Nal = N[C@@H](Cc1cccc2ccccc12)C(=O)O; X3 = O=C(CCCC(=O)[*:2])NCCC(=O)[*:1]; PABC = O=C(OCc1ccc(N[*:1])cc1)[*:2]; Hyp = O=C(O)[C@@H]1C[C@@H](O)CN1; hArg = N=C(N)NCCCC[C@H](N)C(=O)O; Cit = NC(=O)NCCC[C@H](N)C(=O)O; X2 = CC(N*)[C@@H](O)c1ccccc1; ξNMeV = CNC(C(=O)O)C(C)C; ξV = CC(C)C(N)C(=O)O; Sar = CNCC(=O)O

Key:
HCT116 xenograft = assay: Example 9.2: in vivo efficacy in HCT116 xenograft in Balb/c nude mice; parameters: species or system Mus Musculus; details: for TGI / Tumor volume (TV) / Tumor volume / T/C: day 14; for Tumor volume trace over time / Tumor volume: mean ± SEM; for T/C: treated/control group average tumor volume
Panc2.13 xenograft = assay: Example 9.7: in vivo efficacy in Panc2.13 xenograft in Balb/c nude mice; details: for Tumor volume: iv
Procedure: The major endpoint was to see if the tumor growth could be delayed or mice could be cured. Tumor volume was measured three times weekly in two dimensions using a caliper, and the volume was expressed in mm^3 using the formula: V=0.5 a×b^2 where a and b are the long and short diameters of the tumor, respectively. The tumor size was then used for calculations of T/C value. The T/C value (in percent) is an indication of antitumor effectiveness; T and C are the mean volumes of the treated and control groups, respectively, on a given day. TGI was calculated for each group using the formula: TGI (%)=[1−(Ti−T0)/(Vi−V0)]×100; Ti is the average tumor volume of a treatment group on a given day, T0 is the average tumor volume of the treatment group on the day of treatment start, Vi is the average tumor volume of the vehicle control group on the same day with Ti, and V0 is the average tumor volume of the vehicle group on the day of treatment start.
A one-way ANOVA was performed to compare tumor volume among groups, and when a significant F-statistics (a ratio of treatment variance to the error variance) was obtained, comparisons between groups were carried out with Games-Howell test. All data were analyzed using GraphPad Prism 5.0. P<0.05 was considered to be statistically significant.
• Species: Mus Musculus • Strain: Balb/c nude • Age: 6-8 weeks • Sex: female • Body weight: 18-22 g • Number of animals: 41 mice plus spare 3.1.2.
The Panc2.13 tumor cells will be maintained in RMPI1640 medium supplemented with 15% heat inactivated fetal bovine serum and 10 units/ml human recombinant insulin at 37° C. in an atmosphere of 5% CO2 in air. The tumor cells will be routinely subcultured twice weekly. The cells growing in an exponential growth phase will be harvested and counted for tumor inoculation.
Each mouse was inoculated subcutaneously at the right flank with Panc2.13 tumor cells (5×10^6 with Matrigel (1:1) in 0.2 ml of PBS for tumor development. 41 animals were randomized when the average tumor volume reached 149 mm^3. The test article administration and the animal numbers in each group were shown in the experimental design table.
Tumor growth inhibition rate for Test articles in the Panc2.13 xenograft model was calculated based on tumor volume measurements at day 14 after the start of treatment.

How did the TGI (HCT116 xenograft; 3 mg/kg biw) turn out when `CC[C@H](C)C(C(CC(=O)N1CCC[C@H]1[C@H](OC)[C@@H](C)C(=O)NC(C)[C@@H](O)c1ccccc1)OC)N(C)C(=O)[C@@H](NC(=O)C(C(C)C)N(C)C(=O)OCc1ccc(NC(=O)[C@H](CCCNC(N)=O)NC(=O)C(NC(=O)CCCC(=O)NCCC(=O)N(C)CC(=O)N(C)CC(=O)N(C)CC(=O)N(C)CC(=O)N(C)CC(=O)N(C)CC(=O)N(C)CC(=O)N(C)CC(=O)N(C)CC(=O)N(C)CC(=O)N[C@H]2CSCCC(=O)N3CN4CN(C3)C(=O)CCSC[C@H](NC(=O)[C@@H](CC(=O)O)NC(=O)[C@H](Cc3cccc5ccccc35)NC(=O)[C@@H]3CCCN3C2=O)C(=O)N[C@@H](CCSC)C(=O)N[C@@H](CCCCNC(=N)N)C(=O)N[C@@H](CC(=O)O)C(=O)N[C@@H](Cc2c[nH]c3ccccc23)C(=O)N[C@@H](CO)C(=O)N[C@@H]([C@@H](C)O)C(=O)N2CCC[C@H]2C(=O)N2C[C@H](O)C[C@H]2C(=O)N[C@@H](Cc2c[nH]c3ccccc23)C(=O)N[C@H](C(N)=O)CSCCC4=O)C(C)C)cc1)C(C)C` (stereo partly drawn) [BCY8245, MMAE-PABC-Cit-Val-Glutaryl-BCY8234] (I: [Sar][Sar][Sar][Sar][Sar][Sar][Sar][Sar][Sar][Sar]CP[1Nal][dD]CM[hArg]DWSTP[Hyp]WC-NH2 / II: [ξV][Cit][PABC][ξNMeV]V[X1][Dolaproine]-X2; linker I:11-I:15-I:25 via TATA; linker I:N-II:N via X3) was run?
The TGI was 94.9%.

And the “Tumor volume (TV)” value (HCT116 xenograft; 3 mg/kg biw)?
The value was 197 mm^3.

And the TGI (HCT116 xenograft; 3 mg/kg qw)?
The TGI was 57.1%.

And the “Tumor volume (TV)” value (HCT116 xenograft; 3 mg/kg qw)?
The value was 425 mm^3.

What about the TGI (HCT116 xenograft; 5 mg/kg qw) of the same compound?
The TGI was 105.2%.

And the “Tumor volume (TV)” value (HCT116 xenograft; 5 mg/kg qw)?
The value was 134 mm^3.

And the “Tumor volume trace over time” value (HCT116 xenograft; 3 mpk, biw, iv, day 0 after the start of treatment)?
The value was 166 ± 18 mm^3.

What about the “Tumor volume trace over time” value (HCT116 xenograft; 3 mpk, biw, iv, day 2 after the start of treatment) of the same compound?
Its value is 229 ± 40 mm^3.

And the “Tumor volume trace over time” value (HCT116 xenograft; 3 mpk, biw, iv, day 4 after the start of treatment)?
The value was 215 ± 42 mm^3.

What about the “Tumor volume trace over time” value (HCT116 xenograft; 3 mpk, biw, iv, day 7 after the start of treatment) of the same compound?
The value was 213 ± 49 mm^3.

What about the “Tumor volume trace over time” value (HCT116 xenograft; 3 mpk, biw, iv, day 9 after the start of treatment) of the same compound?
The value was 213 ± 48 mm^3.

What about the “Tumor volume trace over time” value (HCT116 xenograft; 3 mpk, biw, iv, day 12 after the start of treatment) of the same compound?
Its value is 206 ± 55 mm^3.

And the TGI (HCT116 xenograft; 3 mpk, biw, iv)?
Its TGI is 94.9%.

What about the “Tumor volume” value (HCT116 xenograft; 3 mpk, biw, iv) of the same compound?
The value was 197 ± 50 mm^3.

What about the T/C (HCT116 xenograft; 3 mpk, biw, iv) of the same compound?
The T/C was 25.6%.

And the “Tumor volume trace over time” value (HCT116 xenograft; 3 mpk, biw, iv, day 14 after the start of treatment)?
Its value is 197 ± 50 mm^3.

And the “Tumor volume trace over time” value (HCT116 xenograft; 3 mpk, qw, iv, day 0 after the start of treatment)?
The value was 167 ± 11 mm^3.

What about the “Tumor volume trace over time” value (HCT116 xenograft; 3 mpk, qw, iv, day 2 after the start of treatment) of the same compound?
Its value is 209 ± 13 mm^3.

What about the “Tumor volume trace over time” value (HCT116 xenograft; 3 mpk, qw, iv, day 4 after the start of treatment) of the same compound?
Its value is 227 ± 17 mm^3.

And the “Tumor volume trace over time” value (HCT116 xenograft; 3 mpk, qw, iv, day 7 after the start of treatment)?
The value was 269 ± 33 mm^3.

And the “Tumor volume trace over time” value (HCT116 xenograft; 3 mpk, qw, iv, day 9 after the start of treatment)?
Its value is 324 ± 39 mm^3.

What about the “Tumor volume trace over time” value (HCT116 xenograft; 3 mpk, qw, iv, day 12 after the start of treatment) of the same compound?
Its value is 348 ± 27 mm^3.

And the TGI (HCT116 xenograft; 3 mpk, qw, iv)?
The TGI was 57.1%.

What about the “Tumor volume” value (HCT116 xenograft; 3 mpk, qw, iv) of the same compound?
Its value is 425 ± 28 mm^3.

What about the T/C (HCT116 xenograft; 3 mpk, qw, iv) of the same compound?
Its T/C is 55.2%.

What about the “Tumor volume trace over time” value (HCT116 xenograft; 3 mpk, qw, iv, day 14 after the start of treatment) of the same compound?
Its value is 425 ± 28 mm^3.

And the “Tumor volume trace over time” value (HCT116 xenograft; 5 mpk, qw, iv, day 0 after the start of treatment)?
Its value is 166 ± 35 mm^3.

What about the “Tumor volume trace over time” value (HCT116 xenograft; 5 mpk, qw, iv, day 2 after the start of treatment) of the same compound?
The value was 201 ± 42 mm^3.

And the “Tumor volume trace over time” value (HCT116 xenograft; 5 mpk, qw, iv, day 4 after the start of treatment)?
Its value is 176 ± 15 mm^3.

What about the “Tumor volume trace over time” value (HCT116 xenograft; 5 mpk, qw, iv, day 7 after the start of treatment) of the same compound?
Its value is 183 ± 17 mm^3.

What about the “Tumor volume trace over time” value (HCT116 xenograft; 5 mpk, qw, iv, day 9 after the start of treatment) of the same compound?
Its value is 170 ± 16 mm^3.

What about the “Tumor volume trace over time” value (HCT116 xenograft; 5 mpk, qw, iv, day 12 after the start of treatment) of the same compound?
The value was 125 ± 18 mm^3.

And the TGI (HCT116 xenograft; 5 mpk, qw, iv)?
The TGI was 105.2%.

What about the “Tumor volume” value (HCT116 xenograft; 5 mpk, qw, iv) of the same compound?
The value was 134 ± 12 mm^3.

And the T/C (HCT116 xenograft; 5 mpk, qw, iv)?
Its T/C is 17.4%.

And the “Tumor volume trace over time” value (HCT116 xenograft; 5 mpk, qw, iv, day 14 after the start of treatment)?
The value was 134 ± 12 mm^3.

And the “tumor response (in words)” value (HCT116 xenograft; mouse, in vivo)?
Its value is “tumor growth is restrained by BCY8245 but the tumor does not undergo regression”.

And the TGI (Panc2.13 xenograft; 3 mg/kg biw, day 14)?
The TGI was 79.1%.

And the “Tumor volume (TV)” value (Panc2.13 xenograft; 3 mg/kg biw, day 14)?
The value was 231 mm^3.

What about the TGI (Panc2.13 xenograft; 3 mg/kg qw, day 14) of the same compound?
Its TGI is 69.2%.

What about the “Tumor volume (TV)” value (Panc2.13 xenograft; 3 mg/kg qw, day 14) of the same compound?
The value was 271 mm^3.

And the TGI (Panc2.13 xenograft; 5 mg/kg qw, day 14)?
Its TGI is 77.5%.

What about the “Tumor volume (TV)” value (Panc2.13 xenograft; 5 mg/kg qw, day 14) of the same compound?
Its value is 238 mm^3.

What about the Tumor volume (Panc2.13 xenograft; 3 mpk, biw, day 0 after the start of treatment) of the same compound?
Its Tumor volume is 148 mm^3.

And the Tumor volume (Panc2.13 xenograft; 3 mpk, biw, day 2)?
The Tumor volume was 170 mm^3.

What about the Tumor volume (Panc2.13 xenograft; 3 mpk, biw, day 4) of the same compound?
The Tumor volume was 204 mm^3.

And the Tumor volume (Panc2.13 xenograft; 3 mpk, biw, day 7)?
The Tumor volume was 216 mm^3.

And the Tumor volume (Panc2.13 xenograft; 3 mpk, biw, day 9)?
Its Tumor volume is 236 mm^3.

What about the Tumor volume (Panc2.13 xenograft; 3 mpk, biw, day 11) of the same compound?
Its Tumor volume is 241 mm^3.

What about the Tumor volume (Panc2.13 xenograft; 3 mpk, biw, day 14) of the same compound?
Its Tumor volume is 231 mm^3.

And the T/C (Panc2.13 xenograft; 3 mpk, biw, day 14)?
The T/C was 42.3%.

What about the TGI (Panc2.13 xenograft; 3 mpk, biw, day 14) of the same compound?
The TGI was 79.1%.

And the “Tumor Volume (Mean ± SEM)” value (Panc2.13 xenograft; 3 mpk, biw, day 14)?
The value was 231 ± 57 mm^3.

What about the Tumor volume (Panc2.13 xenograft; 3 mpk, qw, day 0 after the start of treatment) of the same compound?
Its Tumor volume is 149 mm^3.

And the Tumor volume (Panc2.13 xenograft; 3 mpk, qw, day 2)?
Its Tumor volume is 160 mm^3.

And the Tumor volume (Panc2.13 xenograft; 3 mpk, qw, day 4)?
Its Tumor volume is 191 mm^3.

And the Tumor volume (Panc2.13 xenograft; 3 mpk, qw, day 7)?
The Tumor volume was 215 mm^3.

And the Tumor volume (Panc2.13 xenograft; 3 mpk, qw, day 9)?
Its Tumor volume is 242 mm^3.

And the Tumor volume (Panc2.13 xenograft; 3 mpk, qw, day 11)?
The Tumor volume was 259 mm^3.

What about the Tumor volume (Panc2.13 xenograft; 3 mpk, qw, day 14) of the same compound?
The Tumor volume was 271 mm^3.

What about the T/C (Panc2.13 xenograft; 3 mpk, qw, day 14) of the same compound?
The T/C was 49.6%.

And the TGI (Panc2.13 xenograft; 3 mpk, qw, day 14)?
The TGI was 69.2%.

And the “Tumor Volume (Mean ± SEM)” value (Panc2.13 xenograft; 3 mpk, qw, day 14)?
The value was 271 ± 54 mm^3.
